Data published in patent US11013698B2, “Combinations of LSD1 inhibitors for the treatment of hematological malignancies” (Oryzon Genomics S.A., priority 2016, dated 2021).

Columns and labels:
Assay type in all cases: cell-based
HL-60 = assay: Viability assay (96 hours), Alamar Blue; conditions: HL-60, 96 hours
Experimental: (§1) AML cell lines were maintained in RPMI 10% FBS medium at 37° C. in a humidified incubator with controlled 5% CO2 atmosphere. Cell freezing and thawing was performed following recommendation from ATCC. Genetic profiling of the cell lines used is available in table 2. Cells were seeded at the optimal density (to guarantee linear growth during the treatment), as previously determined (4000 cells/well, except 16000 cells/well in the case of KASUMI-1 cells), in 96-well plates with 50 μL of medium. Three wells were reserved for each experimental condition; medium-only and vehicle-treated controls were also added for background correction and normalization respectively. […] Alamar Blue® is a cell viability indicator that uses the natural reducing power of living cells to convert resazurin to the fluorescent molecule, resorufin^43.

KASUMI-1 = assay: Viability assay (96 hours), Alamar Blue; conditions: KASUMI-1, 96 hours
Experimental: as §1

MOLM-13 = assay: Viability assay (96 hours), Alamar Blue; conditions: MOLM-13, 96 hours
Experimental: as §1

MV(4;11) = assay: Viability assay (96 hours), Alamar Blue; conditions: MV(4;11), 96 hours
Experimental: as §1

OCI-AML3 = assay: Viability assay (96 hours), Alamar Blue; conditions: OCI-AML3, 96 hours
Experimental: as §1

THP-1 = assay: Viability assay (96 hours), Alamar Blue; conditions: THP-1, 96 hours
Experimental: as §1

MOLT-4 cells [1] = assay: Viability assay (10 days), Alamar Blue; conditions: MOLT4, 10 days
Experimental: MOLT4 cells were maintained in RPMI 10% FBS medium at 37° C. in a humidified incubator with controlled 5% CO2 atmosphere. Cell freezing and thawing was performed following recommendation from ATCC. Genetic profiling of the cell lines used is available in table 4.
Three wells were reserved for each experimental condition; medium-only and vehicle-treated controls were also added for background correction and normalization respectively. After seeding, 50 μL of medium containing 8 1:3 serial dilution of ORY-1001 were added to the cells (range 0.015-100 nM). Cells were then incubated for 6 days at 37° C. in a controlled 5% CO2 atmosphere. On the sixth day, 100 μL of medium with serial dilutions of ORY-1001 (as described previously) or vehicle were added to the cells. Medium without compound (100μ) was added to background control.
After 4 additional days of incubation, cell viability was evaluated using the Alamar Blue® staining as detailed in the section 1.1.2.

MOLT-4 cells [2] = assay: Viability after shorter treatment (96 hours); conditions: MOLT-4, 96 hours treatment (data not shown)

- EC50 (viability) (HL-60; single agent): sub-nanomolar range
- EC50 (viability) (MOLM-13; single agent): sub-nanomolar range
- EC50 (viability) (OCI-AML3; single agent): sub-nanomolar range
- EC50 (viability) (THP-1; single agent): sub-nanomolar range
- EC50 (viability) (MOLT-4 cells [1]): sub-nanomolar range
SMILES: N[C@H]1CC[C@H](N[C@@H]2C[C@H]2c2ccccc2)CC1 [ORY-1001, (trans)-N1-((1R,2S)-2-phenylcyclopropyl)cyclohexane-1,4-diamine]
- Reduction of viability (compared to vehicle controls) (HL-60; serial 1:3 dilution): greater than 20%
- Reduction of viability (compared to vehicle controls) (KASUMI-1; serial 1:3 dilution): greater than 20%
- EC50 (viability) (KASUMI-1; single agent): sub-nanomolar range
- Reduction of viability (compared to vehicle controls) (MOLM-13; serial 1:3 dilution): greater than 20%
- Reduction of viability (compared to vehicle controls) (MV(4;11); serial 1:3 dilution): greater than 20%
- EC50 (viability) (MV(4;11); single agent): sub-nanomolar range
- Reduction of viability (compared to vehicle controls) (OCI-AML3; serial 1:3 dilution): greater than 20%
- Reduction of viability (compared to vehicle controls) (THP-1; serial 1:3 dilution): greater than 20%
- cytotoxicity at 0.1 µM (MOLT-4 cells [1]; Homo sapiens, MOLT-4, 240 h, highest ORY-1001 concentration 100 nM, read-out: Viability reduction (compared to vehicles)): > 20%
- Effect on viability (MOLT-4 cells [2]): not affecting the viability
